Structures can show the parent of a compound that is named as a salt.
Target: purified human Factor XIa (Homo sapiens (Human), UniProt P03951)
Assay: Factor XIa chromogenic substrate (S-2366) inhibition assay
Format: biochemical
Method in brief: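 Ki derived from reaction velocities measured in the presence of inhibitor. Purified protease hydrolysed the chromogenic substrate; rate of absorbance change was followed over 20-180 minutes, depending on the protease.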

[1] = substrate S-2366, activity ranges, Table A

Chain of purified human Factor XIa (P03951 388-625): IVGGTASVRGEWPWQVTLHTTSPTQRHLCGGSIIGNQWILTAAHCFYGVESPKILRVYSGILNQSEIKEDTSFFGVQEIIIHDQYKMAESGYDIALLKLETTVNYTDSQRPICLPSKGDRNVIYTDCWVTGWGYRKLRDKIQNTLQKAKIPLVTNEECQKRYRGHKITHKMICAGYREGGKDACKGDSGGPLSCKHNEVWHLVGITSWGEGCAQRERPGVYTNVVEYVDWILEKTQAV
Chain of purified human Factor XIa (P03951 19-387 partner): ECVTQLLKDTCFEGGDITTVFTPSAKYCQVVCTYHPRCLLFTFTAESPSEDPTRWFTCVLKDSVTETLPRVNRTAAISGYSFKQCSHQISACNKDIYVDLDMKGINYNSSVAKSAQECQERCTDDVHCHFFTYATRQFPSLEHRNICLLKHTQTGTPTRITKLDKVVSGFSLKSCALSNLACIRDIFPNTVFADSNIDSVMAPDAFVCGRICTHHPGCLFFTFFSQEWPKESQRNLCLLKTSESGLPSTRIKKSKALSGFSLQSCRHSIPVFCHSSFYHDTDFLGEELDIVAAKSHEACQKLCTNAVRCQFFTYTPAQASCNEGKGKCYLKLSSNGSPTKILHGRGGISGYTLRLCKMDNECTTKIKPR

Ki [1] [nM]	Ki (substrate S-2366, Table 1) [nM]	SMILES
< 5		CC(=O)c1ccc(Cl)c(F)c1/C=C/C(=O)N1CCc2c(cccc2N2CCC(C(=O)N(C)C)CC2)C1C(=O)Nc1ccc(C(=O)O)cc1 (racemic) [Example 218]
5 to 10		CN(C)C1CCN(c2cccc3c2CCN(C(=O)/C=C/c2c(F)cccc2C(F)(F)F)C3C(=O)Nc2ccc(C(=O)O)cc2)CC1 (racemic) [Example 224]
< 5		CC1(C)Cc2c(cccc2N2CCCCC2)[C@@H](C(=O)Nc2ccc(C(=O)O)cc2)N1C(=O)/C=C/c1c(-n2cnnn2)ccc(Cl)c1F [Example 195]
< 5		O=C(O)c1ccc(NC(=O)C2c3cccc(N4CCC(N5CCCC5)CC4)c3CCN2C(=O)/C=C/c2c(O)ccc(Cl)c2F)cc1 (racemic) [Example 162]
5 to 10		CCOC(=O)c1ccc(NC(=O)C2c3cccc(N4CCC5(CCN(C)C5=O)CC4)c3CCN2C(=O)/C=C/c2c(-n3cnnn3)ccc(Cl)c2F)cc1 (racemic) [Example 109]
5 to 10		CC(=O)N1CCN(c2cccc3c2CC(C)(C)N(C(=O)/C=C/c2c(-n4cnnn4)ccc(Cl)c2F)[C@H]3C(=O)Nc2ccc(C(=O)O)cc2)CC1 [Example 205]
100 to 500		COCCCNC(=O)C1c2cccc(N3CCC(N4CCCC4)CC3)c2CCN1C(=O)/C=C/c1c(-n2cnnn2)ccc(Cl)c1F (racemic) [Example 229]
< 5		O=C(O)c1ccc(NC(=O)C2c3cccc(N4CCC(O)CC4)c3CCN2C(=O)/C=C/c2c(-n3cnnn3)ccc(Cl)c2F)cc1 (racemic) [Example 148]
< 5		CCOC(=O)c1ccc(NC(=O)C2c3cccc(N4CCC(N5CCCC5)CC4)c3CCN2C(=O)/C=C/c2c(-n3cnnn3)ccc(Cl)c2F)cc1 (racemic) [Example 83]
5 to 10		O=C(N[C@H]1CC[C@H](O)CC1)C1c2cccc(N3CCC(N4CCCC4)CC3)c2CCN1C(=O)/C=C/c1c(-n2cnnn2)ccc(Cl)c1F (mixture of isomers) [Example 236]
< 5		O=C(Nc1ccc2cn[nH]c2c1)C1c2cccc(N3CCOCC3=O)c2CCN1C(=O)/C=C/c1c(-n2cnnn2)ccc(Cl)c1F (racemic) [Example 47]
	< 5	CC(=O)c1ccc(Cl)c(F)c1/C=C/C(=O)N1CCc2c(cccc2N2CCS(=O)(=O)CC2)C1C(=O)Nc1ccc(C(=O)O)cc1 (racemic) [Example 215]
5 to 10		O=C(O)c1ccc(NC(=O)C2c3cccc(N4CCNCC4)c3CCN2C(=O)/C=C/c2cc(Cl)c(F)cc2-n2cnnn2)cc1 (centres unmarked) [Example 65, (E)-4-(2-(3-(5-chloro-4-fluoro-2-(1H-tetrazol-1-yl)phenyl)acryloyl)-5-(piperazin-1-yl)-1,2,3,4-tetrahydroisoquinoline-1-carboxamido)benzoic acid, bis TFA Salt]
< 5		O=C(O)c1ccc(NC(=O)[C@@H]2c3cccc(N4CCC5(CC4)OCCO5)c3CCN2C(=O)/C=C/c2c(-n3cnnn3)ccc(Cl)c2F)cc1 [Example 143]
< 5		O=C(O)c1ccc(NC(=O)[C@@H]2c3cccc(N4CCC(C(=O)N5CCOCC5)CC4)c3CCN2C(=O)/C=C/c2c(-n3cnnn3)ccc(Cl)c2F)cc1 [Example 141]
5 to 10		O=C(O)c1ccc(NC(=O)C2c3cccc(N4CCNCC4)c3CCN2C(=O)C=Cc2c(-n3cnnn3)ccc(Cl)c2F)cc1 (centres unmarked) [Example 12]
	74.5	N[C@H]1CC[C@H](NC(=O)C2c3cccc(N4CCC(N5CCCC5)CC4)c3CCN2C(=O)/C=C/c2c(-n3cnnn3)ccc(Cl)c2F)CC1 (mixture of isomers) [Example 235]
5 to 10		CC(C)(C)OC(=O)N1CCN(c2cccc3c2CCN(C(=O)/C=C/c2c(-n4cnnn4)ccc(Cl)c2F)C3C(=O)Nc2ccc3cnn(C(=O)OC(C)(C)C)c3c2)CC1 (centres unmarked) [Example 10]
< 5		CC(=O)c1ccc(Cl)c(F)c1C=CC(=O)N1CCc2c(cccc2N2CCC(N3CCCC3)CC2)C1C(=O)Nc1ccc(C(=O)OCC(=O)N(C)C)cc1 (centres unmarked) [Example 172]
< 5		COC(=O)c1ccc(NC(=O)[C@@H]2c3cccc(N4CCC5(CC4)OCCO5)c3CCN2C(=O)/C=C/c2c(-n3cnnn3)ccc(Cl)c2F)cc1 [Example 144]
< 5		CC1(C)CCN(c2cccc3c2CCN(C(=O)/C=C/c2c(-n4cnnn4)ccc(Cl)c2F)C3C(=O)Nc2ccc(C(=O)O)cc2)CC1 (racemic) [Example 117]
< 5		O=C(O)c1ccc(NC(=O)C2c3cccc(N4CCC(N5CCCCC5)CC4)c3CCN2C(=O)/C=C/c2c(-n3cnnn3)ccc(Cl)c2F)cc1 (racemic) [Example 115]
< 5		O=C(O)c1ccc(NC(=O)C2c3cccc(N4CCC5(CCNCC5)CC4)c3CCN2C(=O)/C=C/c2c(-n3cnnn3)ccc(Cl)c2F)cc1 (racemic) [Example 146]
5 to 10		CCOC(=O)c1ccc(NC(=O)C2c3cccc(N4CCC5(CCN(C)C5=O)CC4)c3CCN2C(=O)C=Cc2c(-n3cnnn3)ccc(Cl)c2F)cc1 (centres unmarked) [Example 110]
< 5		O=C1CCC2(CCN(c3cccc4c3CCN(C(=O)/C=C/c3c(-n5cnnn5)ccc(Cl)c3F)C4C(=O)Nc3ccc(C(=O)O)cc3)CC2)O1 (racemic) [Example 145]
< 5		COc1ccc(Cl)c(F)c1/C=C/C(=O)N1CCc2c(cccc2N2CCC(N3CCCC3)CC2)C1C(=O)Nc1ccc(C(=O)O)cc1 (racemic) [Example 161]

The next lines start with the compound.

SMILES	Ki [1] [nM]	Ki (substrate S-2366, Table 1) [nM]
CN1CCN(c2cccc3c2CC(C)(C)N(C(=O)/C=C/c2c(-n4cnnn4)ccc(Cl)c2F)[C@H]3C(=O)Nc2ccc(C(=O)O)cc2)CC1 [Example 202]	100 to 500	
CCCCOC(=O)c1ccc(NC(=O)C2c3cccc(N4CCC(N5CCCC5)CC4)c3CCN2C(=O)C=Cc2c(-n3cnnn3)ccc(Cl)c2F)cc1 (centres unmarked) [Example 113]	100 to 500	
CC(=O)c1ccc(Cl)c(F)c1/C=C/C(=O)N1CCc2c(cccc2N2CCCCC2=O)C1C(=O)Nc1ccc(C(=O)O)cc1 (racemic) [compound 38]	5 to 10	
CC1(C)Cc2c(cccc2N2CCNCC2)C(C(=O)Nc2ccc(C(=O)O)cc2)N1C(=O)/C=C/c1c(-n2cnnn2)ccc(Cl)c1F (centres unmarked) [Example 78, (E)-4-(2-(3-(3-chloro-2-fluoro-6-(1H-tetrazol-1-yl)phenyl)acryloyl)-3,3-dimethyl-5-(piperazin-1-yl)-1,2,3,4-tetrahydroisoquinoline-1-carboxamido)benzoic acid, bis-TFA Salt]	< 5	
O=C(O)c1ccc(NC(=O)C2c3cccc(N4CCC(F)CC4)c3CCN2C(=O)C=Cc2c(-n3cnnn3)ccc(Cl)c2F)cc1 (centres unmarked) [Example 270]	< 5	
CC(=O)N1CCN(c2cccc3c2CC(C)(C)N(C(=O)/C=C/c2c(-n4cnnn4)ccc(Cl)c2F)[C@@H]3C(=O)Nc2ccc(C(=O)O)cc2)CC1 [Example 204]	< 5	
O=C(O)c1ccc(NC(=O)C2c3cccc(N4CCC(N5CCCC5)CC4)c3CCN2C(=O)/C=C/c2c(F)ccc(F)c2F)cc1 (racemic) [Example 182]	5 to 10	
CCOC(=O)c1ccc(NC(=O)C2c3cccc(N4CCC(N5CCCC5)CC4)c3CCN2C(=O)C=Cc2c(-n3cnnn3)ccc(Cl)c2F)cc1 (centres unmarked) [Example 93]	5 to 10	
CC(=O)c1ccc(Cl)c(F)c1C=CC(=O)N1CCc2c(cccc2N2CCC3(CCN(C)C3=O)CC2)C1C(=O)Nc1ccc(C(=O)O)cc1 (centres unmarked) [Example 221]	5 to 10	
CN1CCN(c2cccc3c2CC(C)(C)N(C(=O)/C=C/c2c(-n4cnnn4)ccc(Cl)c2F)[C@@H]3C(=O)Nc2ccc(C(=O)O)cc2)CC1 [Example 201]	< 5	
O=C(O)c1ccc(NC(=O)[C@H]2c3cccc(N4CCC(C(=O)N5CCCC5)CC4)c3CCN2C(=O)/C=C/c2c(-n3cnnn3)ccc(Cl)c2F)cc1 [Example 132]	100 to 500	
Cn1ncc2cc(NC(=O)C3c4cccc(N5CCC(N6CCCC6)CC5)c4CCN3C(=O)/C=C/c3c(-n4cnnn4)ccc(Cl)c3F)ccc21 (racemic) [Example 127]	< 5	
CN1CCN(c2cccc3c2CCN(C(=O)/C=C/c2c(-n4cnnn4)ccc(Cl)c2F)C3C(=O)Nc2ccc3cn[nH]c3c2)CC1 (centres unmarked) [Example 27]	< 5	
O=C(O)c1ccc(NC(=O)C2c3cccc(N4CCC(N5CCOCC5)CC4)c3CCN2C(=O)/C=C/c2c(-n3cnnn3)ccc(Cl)c2F)cc1 (racemic) [Example 138]	< 5	
CN1CCN(c2cccc3c2CCN(C(=O)C=Cc2c(-n4cnnn4)ccc(Cl)c2F)C3C(=O)Nc2ccc(C(=O)O)cc2)CC1 (centres unmarked) [compound 31]	< 5	
O=C(O)c1ccc(NC(=O)C2c3cccc(N4CCC(N5CCCC5)CC4)c3CCN2C(=O)/C=C/c2c(-n3cnnn3)ccc(Cl)c2F)cc1 (centres unmarked) [Example 80, (E)-4-(2-(3-(3-Chloro-2-fluoro-6-(1H-tetrazol-1-yl)phenyl)acryloyl)-5-(4-(pyrrolidin-1-yl)piperidin-1-yl)-1,2,3,4-tetrahydroisoquinoline-1-carboxamido)benzoic acid, bis TFA Salt]	< 5	
O=C(Nc1ccc(F)cc1)C1c2cccc(N3CCC(N4CCCC4)CC3)c2CCN1C(=O)/C=C/c1c(-n2cnnn2)ccc(Cl)c1F (racemic) [Example 82]	< 5	
CCOC(=O)c1ccc(NC(=O)C2c3cccc(N4CCC(N5CCCC5)CC4)c3CCN2C(=O)C=Cc2c(C(C)=O)ccc(Cl)c2F)cc1 (centres unmarked) [Example 170]	< 5	
O=C(O)c1ccc(NC(=O)[C@@H]2c3cccc(N4CCC(C(=O)N5CCCC5)CC4)c3CCN2C(=O)/C=C/c2c(-n3cnnn3)ccc(Cl)c2F)cc1 [Example 133]	< 5	
COC(=O)Nc1ccc(NC(=O)C2c3cccc(N4CCC(N5CCCC5)CC4)c3CCN2C(=O)C=Cc2c(-n3cnnn3)ccc(Cl)c2F)cc1 (centres unmarked) [Example 99]	< 5	
CN(C)C(=O)c1ccc(NC(=O)C2c3cccc(N4CCNCC4)c3CCN2C(=O)/C=C/c2cc(Cl)c(F)cc2-n2cnnn2)cc1 (racemic) [Example 76]	500 to 5000	
CCOC(=O)c1ccc(NC(=O)C2c3cccc(N4CCN(C(=O)OC(C)(C)C)CC4=O)c3CCN2C(=O)/C=C/c2c(-n3cnnn3)ccc(Cl)c2F)cc1 (racemic) [Example 56]	5 to 10	
O=C(O)c1ccc(NC(=O)C2c3cccc(N4CCC(N5CCCC5)CC4)c3CCN2C(=O)/C=C/c2cccc(Cl)c2Cl)cc1 (racemic) [Example 157]	5 to 10	
CCOC(=O)c1ccc(NC(=O)[C@H]2c3cccc(N4CCOCC4)c3CC(C)(C)N2C(=O)/C=C/c2c(-n3cnnn3)ccc(Cl)c2F)cc1 [Example 198]		5740

From patent publication US10208021B2, “Substituted tetrahydroisoquinoline compounds as factor XIa inhibitors” (BRISTOL-MYERS SQUIBB COMPANY, priority 2011, dated 2019)
